Measurements from patent US20060223996A1, “IL-12 modulatory compounds” (Synta Pharmaceuticals Corp., priority 2004, published 2006).

Tested on: IL-12
Assay: Human in vitro assay: inhibition of IL-12 production in IFNγ/LPS- or IFNγ/SAC-stimulated human PBMC or THP-1 cells (ELISA)
Assay type: cell-based
Settings: read-out: IC50 Range (representative in vitro IC50 data)
Summary of the method: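 Sandwich ELISA for IL-12 (p70, p40) on supernatants collected 18 h after stimulation gave IC50 values; MTS monitored viability. THP-1 cells: IFNγ 100 U/mL priming 22 h, SAC 0.025%. PBMC: IFNγ 30 U/mL for 22 h plus LPS 1 μg/mL, or IFNγ 100 U/mL plus SAC 0.01%. Final DMSO 0.25%.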

| Structure (SMILES) | IC50 [µM] |
| --- | --- |
| Cc1[nH]c2ccc(NC(=O)c3cc(NCC(=O)N4CCC(C(N)=O)CC4)nc(N4CCOCC4)n3)cc2c1C [Compound 99, 6-[2-(4-Carbamoyl-piperidin-1-yl)-2-oxo-ethylamino]-2-morpholin-4-yl-pyrimidine-4-carboxylic acid (2,3-dimethyl-1H-indol-5-yl)-amide] | < 1 |
| CC(=O)N1CCN(c2cc(NC(=O)Nc3ccc4[nH]c(C)c(C)c4c3)nc(N3CCOCC3)n2)CC1 [Compound 264, 1-(6-(4-acetylpiperazin-1-yl)-2-morpholinopyrimidin-4-yl)-3-(2,3-dimethyl-1H-indol-5-yl)urea] | < 1 |
| O=C(Nc1ccc(O)cc1)Nc1cc(OCCN2CCOCC2)nc(N2CCOCC2)n1 [Compound 143, 1-(4-Hydroxy-phenyl)-3-[2-morpholin-4-yl-6-(2-morpholin-4-yl-ethoxy)-pyrimidin-4-yl]-urea] | < 1 |
| Cn1c(=O)oc2ccc(NC(=O)c3cc(OCCN4CCOCC4)nc(N4CCOCC4)n3)cc21 [Compound 218, N-(3-methyl-2-oxo-2,3-dihydrobenzo[d]oxazol-5-yl)-2-morpholino-6-(2-morpholinoethoxy)pyrimidine-4-carboxamide] | < 1 |
| N#Cc1cccc(NC(=O)Nc2cc(OCCN3CCOCC3)nc(N3CCOCC3)n2)c1 [Compound 127, 1-(3-Cyano-phenyl)-3-[2-morpholin-4-yl-6-(2-morpholin-4-yl-ethoxy)-pyrimidin-4-yl]-urea] | < 1 |
| Cc1ccc(NC(=O)c2cc(OCCN3CCOCC3)nc(N3CCOCC3)n2)cc1C [Compound 23, 2-Morpholin-4-yl-6-(2-morpholin-4-yl-ethoxy)-pyrimidine-4-carboxylic acid (3,4-dimethyl-phenyl)-amide] | < 1 |
| CCc1cccc(NC(=O)c2cc(OCCN3CCOCC3)nc(N3CCOCC3)n2)c1 [Compound 46, 2-Morpholin-4-yl-6-(2-morpholin-4-yl-ethoxy)-pyrimidine-4-carboxylic acid (3-ethyl-phenyl)-amide] | ≥ 1 |
| O=C(Nc1cccc(N2CCOCC2)c1)c1cc(OCCN2CCOCC2)nc(N2CCOCC2)n1 [Compound 295, 2-Morpholin-4-yl-6-(2-morpholin-4-yl-ethoxy)-pyrimidine-4-carboxylic acid (3-morpholin-4-yl-phenyl)-amide] | < 1 |
| O=C(Nc1cccc(Br)c1)c1cc(OCCN2CCOCC2)nc(N2CCOCC2)n1 [Compound 47, 2-Morpholin-4-yl-6-(2-morpholin-4-yl-ethoxy)-pyrimidine-4-carboxylic acid (3-bromo-phenyl)-amide] | ≥ 1 |
| O=C(Nc1cc(OCCN2CCOCC2)nc(N2CCOCC2)n1)Nc1cccc2c(O)cccc12 [Compound 138, 1-(5-Hydroxy-naphthalen-1-yl)-3-[2-morpholin-4-yl-6-(2-morpholin-4-yl-ethoxy)-pyrimidin-4-yl]-urea] | ≥ 1 |
| O=C(Nc1ccc2[nH]c(C(F)(F)F)nc2c1)c1cc(NCCN2CCOCC2)nc(N2CCOCC2)n1 [Compound 190, 2-morpholino-6-(2-morpholinoethylamino)-N-(2-(trifluoromethyl)-1H-benzo[d]imidazol-5-yl)pyrimidine-4-carboxamide] | ≥ 1 |
| COCCN(C)c1cc(C(=O)Nc2cc(N(C)C)ccc2F)nc(N2CCOCC2)n1 [Compound 212, N-(5-(dimethylamino)-2-fluorophenyl)-6-((2-methoxyethyl)(methyl)amino)-2-morpholinopyrimidine-4-carboxamide] | ≥ 1 |

Other lines, results leading:

| IC50 [µM] | Structure (SMILES) |
| --- | --- |
| ≥ 1 | Cc1ccc2nc(NC(=O)c3cc(N4CCOCC4)nc(OCCc4ccccn4)n3)sc2c1 [Compound 64, 6-Morpholin-4-yl-2-(2-pyridin-2-yl-ethoxy)-pyrimidine-4-carboxylic acid (6-methyl-benzothiazol-2-yl)-amide] |
| ≥ 1 | Cc1ccnc(NC(=O)c2cc(OCCc3ccccn3)nc(N3CCOCC3)n2)c1 [Compound 35, 2-Morpholin-4-yl-6-(2-pyridin-2-yl-ethoxy)-pyrimidine-4-carboxylic acid (4-methyl-pyridin-2-yl)-amide] |
| < 1 | Cc1[nH]c2ccc(NC(=O)c3cc(N4CCN(C)CC4)nc(N4CCOCC4)n3)cc2c1C [Compound 251, N-(2,3-dimethyl-1H-indol-5-yl)-6-(4-methylpiperazin-1-yl)-2-morpholinopyrimidine-4-carboxamide] |
| < 1 | O=C(Nc1cc(OCCN2CCOCC2)nc(N2CCOCC2)n1)Nc1nc2ccc(Cl)cc2s1 [Compound 139, 1-(6-Chloro-benzothiazol-2-yl)-3-[2-morpholin-4-yl-6-(2-morpholin-4-yl-ethoxy)-pyrimidin-4-yl]-urea] |
| < 1 | Cc1[nH]c2ccc(NC(=O)c3cc(NCC(N)=O)nc(N4CCOCC4)n3)cc2c1C [Compound 104, 6-(Carbamoylmethyl-amino)-2-morpholin-4-yl-pyrimidine-4-carboxylic acid (2,3-dimethyl-1H-indol-5-yl)-amide] |
| < 1 | Cc1[nH]c2ccc(NC(=O)c3cccc(N4CCOCC4)n3)cc2c1C [Compound 168, 6-Morpholin-4-yl-pyridine-2-carboxylic acid (2,3-dimethyl-1H-indol-5-yl)-amide] |
| < 1 | O=C(Nc1ccc2[nH]c3c(c2c1)CCCC3)c1cc(OCCc2cccc[n+]2[O-])nc(N2CCOCC2)n1 [Compound 322, 2-Morpholin-4-yl-6-[2-(1-oxy-pyridin-2-yl)-ethoxy]-pyrimidine-4-carboxylic acid (6,7,8,9-tetrahydro-5H-carbazol-3-yl)-amide] |
| ≥ 1 | COCCN(C)c1cc(C(=O)Nc2cccc(OC(F)(F)F)c2)nc(N2CCOCC2)n1 [Compound 244, 6-[(2-Methoxy-ethyl)-methyl-amino]-2-morpholin-4-yl-pyrimidine-4-carboxylic acid (3-trifluoromethoxy-phenyl)-amide] |
| < 1 | CNCCOc1cc(NC(=O)Nc2cccc(C)c2)nc(N2CCOCC2)n1 [Compound 10, 1-[6-(2-Methylamino-ethoxy)-2-morpholin-4-yl-pyrimidin-4-yl]-3-m-tolyl-urea] |
| ≥ 1 | COCCN(C)c1cc(C(=O)Nc2cccc(-c3nn(C)cc3Br)c2)nc(N2CCOCC2)n1 [Compound 235, 6-[(2-Methoxy-ethyl)-methyl-amino]-2-morpholin-4-yl-pyrimidine-4-carboxylic acid [3-(4-bromo-1-methyl-1H-pyrazol-3-yl)-phenyl]-amide] |
| < 1 | Cc1[nH]c2ccc(NC(=O)c3cc(OCC(C)(C)O)nc(N4CCOCC4)n3)cc2c1C [Compound 314, 6-(2-Hydroxy-2-methyl-propoxy)-2-morpholin-4-yl-pyrimidine-4-carboxylic acid (2,3-dimethyl-1H-indol-5-yl)-amide] |
| < 1 | Cc1[nH]c2ccc(NC(=O)c3cc(N4CCCCC4)cc(N4CCOCC4)n3)cc2c1C [Compound 182, 6′-Morpholin-4-yl-3,4,5,6-tetrahydro-2H-[1,4′]bipyridinyl-2′-carboxylic acid (2,3-dimethyl-1H-indol-5-yl)-amide] |
| < 1 | COCCOc1cc(C(=O)Nc2ccc3[nH]c(C)c(C)c3c2)nc(N2CCOCC2)n1 [Compound 301, 6-(2-Methoxy-ethoxy)-2-morpholin-4-yl-pyrimidine-4-carboxylic acid (2,3-dimethyl-1H-indol-5-yl)-amide] |
